Experimental findings from article PMC2784637 (Biochemistry, 2009) are described below.

This assay addresses T1, cyt bc1 (ubihydroquinone:cytochrome c oxidoreductase) (Rhodobacter capsulatus, UniProt D5ANZ2+D5ANZ3).
T1 sequence (D5ANZ3 2-437): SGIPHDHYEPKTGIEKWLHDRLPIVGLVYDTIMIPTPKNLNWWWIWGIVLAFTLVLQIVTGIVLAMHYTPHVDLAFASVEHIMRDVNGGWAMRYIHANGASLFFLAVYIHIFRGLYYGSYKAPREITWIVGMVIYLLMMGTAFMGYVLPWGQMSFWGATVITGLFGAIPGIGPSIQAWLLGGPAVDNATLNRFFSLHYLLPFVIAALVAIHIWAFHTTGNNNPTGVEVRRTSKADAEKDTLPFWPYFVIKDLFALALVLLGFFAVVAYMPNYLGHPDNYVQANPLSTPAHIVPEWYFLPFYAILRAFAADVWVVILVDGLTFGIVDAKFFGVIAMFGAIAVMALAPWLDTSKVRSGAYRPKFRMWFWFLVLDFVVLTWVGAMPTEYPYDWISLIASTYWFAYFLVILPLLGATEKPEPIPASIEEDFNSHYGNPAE
T1 sequence (D5ANZ2 1-191): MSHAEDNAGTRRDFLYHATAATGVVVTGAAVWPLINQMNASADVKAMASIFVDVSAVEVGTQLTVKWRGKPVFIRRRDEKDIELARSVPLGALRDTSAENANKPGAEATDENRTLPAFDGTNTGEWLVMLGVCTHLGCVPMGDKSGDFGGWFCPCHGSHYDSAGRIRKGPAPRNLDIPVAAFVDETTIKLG
T1 sequence (D5ANZ4 22-279 partner): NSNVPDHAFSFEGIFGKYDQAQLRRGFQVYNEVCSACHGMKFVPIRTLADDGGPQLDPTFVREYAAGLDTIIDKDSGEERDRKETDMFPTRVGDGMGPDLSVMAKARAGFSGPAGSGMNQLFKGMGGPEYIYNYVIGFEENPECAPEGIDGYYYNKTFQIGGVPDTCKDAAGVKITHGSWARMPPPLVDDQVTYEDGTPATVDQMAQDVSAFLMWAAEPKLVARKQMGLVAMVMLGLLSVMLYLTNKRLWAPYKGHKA
Description: light-activated cyt b reduction and cyt c rereduction kinetics. Conditions: chromatophore membranes, 10 uM, pH 7.0, Eh 100 mV; Qo site. Format: biochemical.

Molecules are shown by their SMILES.

Take `CO/C(=C/C(N)=O)[C@H](C)[C@H](/C=C/c1csc(-c2csc([C@@H](C)/C=C/C=C/C(C)C)n2)n1)OC` [myxothiazol]: the “light-activated cyt b reduction and cyt c rereduction kinetics” value was “addition of myxothiazol completely abolished the kinetics by displacing the Qo site occupant”.
